# From US20260297081A1, “COMPOUNDS AND METHODS OF TREATING CANCERS” (Cullgen Inc., priority 2023, published 2026)
# System: MCF7 cells
# Assay: Anti-proliferation (viability) of MCF7 cells (Table 7, FIG. 2B)
# Format: cell-based
# Settings: Homo sapiens, MCF7, MCF7 cells, 3-6 days, 10-point serial dilution; read-out: GI IC50 in MCF-7
row,Structure (SMILES),IC50
1,"CC(=O)c1c(C)c2cnc(Nc3ccc(N4CCN(CC(=O)NC5CC6(C5)CC(Nc5nc(OC(C)C)ccc5C(=O)Nc5cn(C)c(C7CC7)n5)C6)CC4)cn3)nc2n(C2CCCC2)c1=O (stereo not shown) [CPD-292, 2-((6-(2-(4-(6-((6-acetyl-8-cyclopentyl-5-methyl-7-oxo-7,8-dihydropyrido[2,3-d]pyrimidin-2-yl)amino)pyridin-3-yl)piperazin-1-yl)acetamido)spiro[3.3]heptan-2-yl)amino)-N-(2-cyclopropyl-1-methyl-1H-imidazol-4-yl)-6-isopropoxynicotinamide]",> 100 nM
2,"CCNc1ccc(C(=O)Nc2cn(C)c(C3CC3)n2)c(NC2CC3(CC(NC(=O)CN4CCN(c5ccc(Nc6ncc7c(C)c(C(C)=O)c(=O)n(C8CCCC8)c7n6)nc5)CC4)C3)C2)n1 (stereo not shown) [CPD-293, 2-((6-(2-(4-(6-((6-acetyl-8-cyclopentyl-5-methyl-7-oxo-7,8-dihydropyrido[2,3-d]pyrimidin-2-yl)amino)pyridin-3-yl)piperazin-1-yl)acetamido)spiro[3.3]heptan-2-yl)amino)-N-(2-cyclopropyl-1-methyl-1H-imidazol-4-yl)-6-(ethylamino)nicotinamide]",> 100 nM
3,"[2H]C([2H])([2H])Nc1ccc(C(=O)Nc2cc(C)on2)c(NC2CCC(NC(=O)CN3CCN(c4ccc(Nc5ncc6c(C)c(C(C)=O)c(=O)n(C7CCCC7)c6n5)nc4)CC3)C2)n1 (stereo not shown) [CPD-294, 2-((3-(2-(4-(6-((6-acetyl-8-cyclopentyl-5-methyl-7-oxo-7,8-dihydropyrido[2,3-d]pyrimidin-2-yl)amino)pyridin-3-yl)piperazin-1-yl)acetamido)cyclopentyl)amino)-6-((methyl-d3)amino)-N-(5-methylisoxazol-3-yl)nicotinamide]",> 100 nM
4,"CC(=O)c1c(C)c2cnc(Nc3ccc(N4CCN(CC(=O)NC5CCC(Nc6nc(NC(C)C)ccc6C(=O)Nc6cc(C)on6)C5)CC4)cn3)nc2n(C2CCCC2)c1=O (stereo not shown) [CPD-295, 2-((3-(2-(4-(6-((6-acetyl-8-cyclopentyl-5-methyl-7-oxo-7,8-dihydropyrido[2,3-d]pyrimidin-2-yl)amino)pyridin-3-yl)piperazin-1-yl)acetamido)cyclopentyl)amino)-6-(isopropylamino)-N-(5-methylisoxazol-3-yl)nicotinamide]",> 100 nM
5,"CNc1ccc(C(=O)Nc2cn(C)c(C3CCCC3)n2)c(NC2CC3(CC(NC(=O)CN4CCN(c5ccc(Nc6ncc7c(C)c(C(C)=O)c(=O)n(C8CCCC8)c7n6)nc5)CC4)C3)C2)n1 (stereo not shown) [CPD-296, 2-((6-(2-(4-(6-((6-acetyl-8-cyclopentyl-5-methyl-7-oxo-7,8-dihydropyrido[2,3-d]pyrimidin-2-yl)amino)pyridin-3-yl)piperazin-1-yl)acetamido)spiro[3.3]heptan-2-yl)amino)-N-(2-cyclopentyl-1-methyl-1H-imidazol-4-yl)-6-(methylamino)nicotinamide]",> 100 nM
6,"CNc1ccc(C(=O)Nc2cc(C)n(C3CCC3)n2)c(NC2CC3(CC(NC(=O)CN4CCN(c5ccc(Nc6ncc7c(C)c(C(C)=O)c(=O)n(C8CCCC8)c7n6)nc5)CC4)C3)C2)n1 (stereo not shown) [CPD-297, 2-((6-(2-(4-(6-((6-acetyl-8-cyclopentyl-5-methyl-7-oxo-7,8-dihydropyrido[2,3-d]pyrimidin-2-yl)amino)pyridin-3-yl)piperazin-1-yl)acetamido)spiro[3.3]heptan-2-yl)amino)-N-(1-cyclobutyl-5-methyl-1H-pyrazol-3-yl)-6-(methylamino)nicotinamide]",> 100 nM
7,"CCCNc1ccc(C(=O)Nc2cn(C)c(C3CC3)n2)c(NC2CC3(CC(NC(=O)CN4CCN(c5ccc(Nc6ncc7c(C)c(C(C)=O)c(=O)n(C8CCCC8)c7n6)nc5)CC4)C3)C2)n1 (stereo not shown) [CPD-298, 2-((6-(2-(4-(6-((6-acetyl-8-cyclopentyl-5-methyl-7-oxo-7,8-dihydropyrido[2,3-d]pyrimidin-2-yl)amino)pyridin-3-yl)piperazin-1-yl)acetamido)spiro[3.3]heptan-2-yl)amino)-N-(2-cyclopropyl-1-methyl-1H-imidazol-4-yl)-6-(propylamino)nicotinamide]",> 100 nM
8,"CC(=O)c1c(C)c2cnc(Nc3ccc(N4CCN(CCC(=O)N5CC(Nc6nc(NC(C)C)ccc6C(=O)Nc6cn(C)c(C7CC7)n6)C5)CC4)cn3)nc2n(C2CCCC2)c1=O [CPD-304, 2-((1-(3-(4-(6-((6-acetyl-8-cyclopentyl-5-methyl-7-oxo-7,8-dihydropyrido[2,3-d]pyrimidin-2-yl)amino)pyridin-3-yl)piperazin-1-yl)propanoyl)azetidin-3-yl)amino)-N-(2-cyclopropyl-1-methyl-1H-imidazol-4-yl)-6-(isopropylamino)nicotinamide]",> 100 nM

# The next lines start with the values.
row,IC50,Structure (SMILES)
1,> 100 nM,"CNc1ccc(C(=O)Nc2ccc(N(C)C)nn2)c(NC2CN(C(=O)CN3CCN(Cc4ccc(Nc5ncc6c(C)c(C(C)=O)c(=O)n(C7CCCC7)c6n5)nc4)CC3)C2)n1 [CPD-269, 2-((1-(2-(4-((6-((6-acetyl-8-cyclopentyl-5-methyl-7-oxo-7,8-dihydropyrido[2,3-d]pyrimidin-2-yl)amino)pyridin-3-yl)methyl)piperazin-1-yl)acetyl)azetidin-3-yl)amino)-N-(6-(dimethylamino)pyridazin-3-yl)-6-(methylamino)nicotinamide]"
2,> 100 nM,"CC(=O)c1c(C)c2cnc(Nc3ccc(N4CCN(CC(=O)N5CCC(Nc6nc(NC(C)C)ccc6C(=O)Nc6cc(C)on6)CC5)CC4)cn3)nc2n(C2CCCC2)c1=O [CPD-290, 2-((1-(2-(4-(6-((6-acetyl-8-cyclopentyl-5-methyl-7-oxo-7,8-dihydropyrido[2,3-d]pyrimidin-2-yl)amino)pyridin-3-yl)piperazin-1-yl)acetyl)piperidin-4-yl)amino)-6-(isopropylamino)-N-(5-methylisoxazol-3-yl)nicotinamide]"
3,> 100 nM,"CC(=O)c1c(C)c2cnc(Nc3ccc(N4CCN(CC(=O)NC5CC6(C5)CC(Nc5nc(N(C)C)ccc5C(=O)Nc5cn(C)c(C7CC7)n5)C6)CC4)cn3)nc2n(C2CCCC2)c1=O (stereo not shown) [CPD-291, 2-((6-(2-(4-(6-((6-acetyl-8-cyclopentyl-5-methyl-7-oxo-7,8-dihydropyrido[2,3-d]pyrimidin-2-yl)amino)pyridin-3-yl)piperazin-1-yl)acetamido)spiro[3.3]heptan-2-yl)amino)-N-(2-cyclopropyl-1-methyl-1H-imidazol-4-yl)-6-(dimethylamino)nicotinamide]"
4,< 50 nM,"CNc1ccc(C(=O)Nc2ccc(N(C)C)nn2)c(NC2CCN(C(=O)CNC3CCN(c4ccc(Nc5ncc6c(C)c(C(C)=O)c(=O)n(C7CCCC7)c6n5)nc4)CC3)CC2)n1 [CPD-299, 2-((1-((1-(6-((6-acetyl-8-cyclopentyl-5-methyl-7-oxo-7,8-dihydropyrido[2,3-d]pyrimidin-2-yl)amino)pyridin-3-yl)piperidin-4-yl)glycyl)piperidin-4-yl)amino)-N-(6-(dimethylamino)pyridazin-3-yl)-6-(methylamino)nicotinamide]"
5,< 50 nM,"CC(=O)c1c(C)c2cnc(Nc3ccc(N4CCN(CCC(=O)N5CC(Nc6nc(NC(C)C)ccc6C(=O)Nc6ccc(N(C)C)nn6)C5)CC4)cn3)nc2n(C2CCCC2)c1=O [CPD-303, 2-((1-(3-(4-(6-((6-acetyl-8-cyclopentyl-5-methyl-7-oxo-7,8-dihydropyrido[2,3-d]pyrimidin-2-yl)amino)pyridin-3-yl)piperazin-1-yl)propanoyl)azetidin-3-yl)amino)-N-(6-(dimethylamino)pyridazin-3-yl)-6-(isopropylamino)nicotinamide]"
